Measurements taken from US20140137274A1, “INDUCED MALIGNANT STEM CELLS” (LSIP, LLC, priority 2011, published 2014).

Test system: cancer-related miRNAs
Assay: miRNA expression microarray (SurePrint G3 Human miRNA Microarray Rel.16.0)
Conditions: logarithmic (log2) value of quotient vs control
Experimental: Total RNA was prepared from each of six induced malignant stem cells, one induced non-malignant stem cell, and one induced pluripotent stem cell as mentioned above, and the prepared total RNAs were used in Agilent SurePrint G3 Human miRNA Microarray Rel.16.0 to detect abnormal expression (increased or reduced/lost expression) of non-coding RNAs such as endogenous cancer-related microRNAs in the induced malignant stem cells.
Complete Labeling Reagent and Hyb Kit in accordance with the Agilent protocol. To be specific, each sample total RNA (100 ng) was dephosphorylated with Calf Intestine Alkaline Phosphatase (CIP), and the RNA molecule on its 3′ terminal side was labeled with a cyanine 3-cytidine bisphosphate (pCp-Cy3) molecule using T4 RNA Ligase.
The RNA samples labeled in (14-2-3) were hybridized with SurePrint G3 Human miRNA Microarray Rel.16.0 using Agilent miRNA Complete Labeling Reagent and Hyb Kit. To be specific, each of the labeled RNAs was added to a hybridization buffer and allowed to hybridize on SurePrint G3 Human miRNA Microarray Rel.16.0 for 20 hours. After washing, the DNA microarray image was scanned by Agilent Microarray Scanner, and fluorescence signals from the spots were digitized by Feature Extraction Software (v.10.7.3.1).
The miRNAs were annotated using miRBase Release 18, and hybridization was performed onto a microarray chip with the probes designed for the miRNAs shown in the following table (refer to Table 31 below).
In this analysis, the normalized value of the digital data for the hybridization of a subject cell (induced malignant stem cell) sample was divided by the normalized value from the digital data for the hybridization of a control cell sample and the quotient was used as a measure of variation in expression. Probes for which the quotients deviated from 1 (i.e., log21=0) were considered to indicate a variation in expression; those showing quotients greater than 2 (log22=1) or smaller than 0.5 (log20.5=−1) were selected. For each of the comparisons shown below, the genes shown in the tyrosine kinase list and those shown in the cancer drug targets list were analyzed to make respective lists of the genes showing quotients greater than 2 (log22=1) or smaller than 0.5 (log20.5=−1), as compared with the quotient for the control (taken as 1). The analysis was performed using GeneSpring 12.1.
The Normalized column represents a variation in expression in logarithmic values.

Substance	Normalized (variation in microRNA expression, subject cell / control cell) ([Ngc1_7]vs [Nib2_17])	Normalized (variation in microRNA expression, subject cell / control cell) ([cc4_c]vs [Nfb2_17])	Normalized (variation in microRNA expression, subject cell / control cell) ([gc1_6]vs [Ngc1_7])	Normalized (variation in microRNA expression, subject cell / control cell) ([gc2_1]vs [Nfb2_17])	Normalized (variation in microRNA expression, subject cell / control cell) ([gc2_5]vs [Nfb2_17])	Normalized (variation in microRNA expression, subject cell / control cell) ([gc2_10]vs +Nfb2_17])	Normalized (variation in microRNA expression, subject cell / control cell) ([gcl_6]vs [Nfb2_17])
hsa-miR-125b-5p (TCACAAGTTAGGGTCTC; chemistry not given here)	1.982	2.946	−1.393	−1.425	−2.411	–	–
hsa-miR-29b-3p (AACACTGATTTCAAATGGTGC; chemistry not given here)	–	4.488	–	–	–	–	–
hsa-miR-193b-3p (AGCGGGACTTTGAGGG; chemistry not given here)	–	–	–	–	–	1.098	–
hsa-miR-372 (ACGCTCAAATGTCGCAGC; chemistry not given here)	−3.388	–	2.003	–	–	–	−1.385
hsa-let-7i-5p (AACAGCACAAACTACTACCTC; chemistry not given here)	2.747	4.054	−1.307	–	–	–	1.44
hsa-1et-7c (AACCATACAACCTACTACC; chemistry not given here)	–	4.789	–	–	–	–	–
hsa-miR-183-5p (AGTGAATTCTACCAGTGCCA; chemistry not given here)	–	1.285	–	–	–	−1.886	–
hsa-let-7e-5p (AACTATACAACCTCCTACC; chemistry not given here)	3.356	4.793	−2.684	1.601	–	2.18	–
